| melting point [°C] | SMILES |
| --- | --- |
| 67 to 72 | CCOc1nc(N)c2ncn(C3C=CCCC3)c2n1 (stereo not given) |
| 144 to 145 | CCSc1ccc(-c2coc3ccc(-c4nnc(C)o4)cc23)cc1 |
| 104 to 106 | Cc1cc(=O)c2ccc(OCC(O)CCl)cc2o1 (stereo not given) |
| 174 to 180 | Cc1nc(C)c(Cl)c(NCc2nccc(SCCCSc3sccc3[N+](=O)[O-])c2C)n1 |
| 196 to 201 | COc1cc2c3c(n(C)c(=O)c2cc1OC)-c1cc2c(cc1C3=CCCCCl)OCO2 |
| 172 to 174 | CCCCc1cc(C(N)=O)ccc1OCCCNc1cnn(C(C)C)c(=O)c1Cl |
| 162 to 164 | COC(=O)c1sc(-n2cccn2)cc1O |
| 70 to 72 | CCC(C)c1ccc(-n2c(-c3cc(C)c(OCCO)c(C)c3)nc3ccc(F)cc3c2=O)cc1 (stereo not given) |
| 175 to 178 | COc1cc2c(cn1)CCCC2=NO |
| 155 | CC1NN(Cc2ccc(Cl)cc2)C(=O)NC1=O (stereo not given) |
| 123 to 128 | CN1NC(C2CCCC2)=CC1C(=O)O (stereo not given) |
| 154 to 155 | CC(C)CC(=O)Nc1ccc2oc3c(c2c1)CCCCCC3 |
| 60 to 61 | O=C(Cc1ccccc1)c1ccc(SCC(F)(F)F)cc1 |
| 162 | CC(=O)Nc1ccc2c(c1)S(=O)(=O)N(CCCCN1CCN(c3ncccn3)CC1)C2=O |
| 170 to 173 | N#Cc1c([N+](=O)[O-])ccc(N2CCCC2)c1Cl |
| 92 to 93 | CCCCCCCCCCCCCCS(N)(=O)=O |
| 81 to 84 | CCOC(=S)CC/C(C)=C/Cc1c(OC)c(C)c2c(c1OC(C)=O)C(=O)OC2 |
| 213 to 215 | CC1(C)C=C(c2cc(C#N)ccc2O)c2cc(C#N)ccc2O1 |
| 197 | N#Cc1ccc(C=Cc2ccc(N(CCO)CCO)cc2)cc1 |
| 70 to 71 | C#CCn1cc(C(=O)OCC)sc1=O |
| > 300 | O=C1Nc2ccccc2C1=c1[nH]c(=O)c(=Cc2ccc(OCc3ccccc3)cn2)[nH]c1=O |
| 180 to 181 | CCCCNC(=O)C(=O)Nc1ccc(OC)cc1N |
| 166 to 167 | Cc1cccc(-c2nsc(C(=O)O)c2C(=O)O)c1 |
| 191 to 192 | O=C(N[C@H](Cc1ccc(C(F)(F)F)cc1)[C@@H](O)c1ccc(Oc2ccccc2)cc1)c1cccc2c1C=CCCC2 (racemic) |

| melting point [°C] | SMILES |
| --- | --- |
| 175 to 176 | O=C(c1ccc(C2CCCCC2)cc1)N1Cc2ccccc2Nc2ccccc21 |
| 118 to 124 | Cc1ccccc1-c1ccc(C(=O)N2Cc3ccc(C(=O)NC(C)c4ccccc4)n3Cc3ccccc32)cc1C (stereo not given) |
| 90 to 92 | COc1cc(Cl)c(N=C2NCCN2OCc2ccccc2)c(Cl)c1 |
| 188 to 189 | O=C(Nc1cccnc1)N1CCc2cc(C(F)(F)F)ccc21 |
| 167 to 169 | Cc1nc2c(cc1C(=O)O)CCCCC2 |
| 274 | COc1ccc(-c2[nH]nc3c2C(=O)c2c(NC(=O)CCl)cccc2-3)cc1 |
| 133 to 134 | CNC(=O)c1ccccc1C(O)c1ccc(F)cc1 (stereo not given) |
| 84 | O=C(O)Cc1ccc(OCCNC(=O)C2Cc3ccccc3N2S(=O)(=O)c2ccc(-c3cc(C(F)(F)F)ccc3Cl)cc2)cc1 (stereo not given) |
| 146 | Fc1ccc(C(c2ccccc2)(c2ccccc2)n2ccnc2)cc1 |
| 279 to 282 | Cn1cc(C2=C(c3cn(C)c4cc(O)ccc34)C(=O)NC2=O)c2ccccc21 |
| 91 | Cn1cc(-c2cc(-c3cnc4[nH]ccc4c3)ccn2)n(-c2ccc(C(C)(C)CN)cc2)c1=O |
| 105 to 107 | O=C(NCC1CC1)c1cccnc1Oc1cncc(Cl)c1 |
| 87 to 89 | Cc1cc(Br)ccc1C(=O)N=CN(C)C |
| > 300 | O=c1[nH]c2cc([N+](=O)[O-])ccc2cc1P(=O)(O)O |
| 163 to 164 | COc1ccc(CCCN2CCc3cc(O)ccc3C2)cc1 |
| 184 to 189 | CN(C)C(=O)CCc1ccc(NC(=O)Nc2ccc(Cl)c(C(F)(F)F)c2)c(-c2nnn[nH]2)c1 |
| 274 to 275 | O=c1nc(Nc2ccc(Br)cc2)sc2ncccc12 |
| 111 | COc1ccc(F)c(C=C2c3ccccc3CCc3ccccc32)c1 |
| 187 to 189 | COCOc1ccccc1-c1cc(-c2ccc(OC)c(C(=O)O)c2)c(C#N)c(NC(=O)c2cccs2)n1 |
| 111 | C=C(C)Cn1c(=O)n(C)c(=O)c2cc(Cc3ccc(OC)cc3)sc21 |
| 98.5 to 102 | COc1ccc(-c2nc(-c3cccn3CC(=O)OCCC(C)C)sc2-c2ccc(OC)cc2)cc1 |
| 151 to 152 | Cc1nc(O)sc1CCCl |
| 170 to 172 | COc1ccccc1N1CCN(CCn2cnc3sc4c(c3c2=O)CCN(C(C)=O)C4)CC1 |
| 80 to 85 | COC(=O)C=C(C)c1ccc2c(ccn2S(=O)(=O)c2ccccc2)c1 |

| melting point [°C] | SMILES |
| --- | --- |
| 141 to 143 | CS(=O)(=O)c1ccc(-c2cnc(N(Cc3ccc(C(F)(F)P(=O)(O)O)c(Cl)c3)c3ccc(Cl)c(Cl)c3)o2)cc1 |
| 137 to 138 | CN(C)Cc1cc(C(=O)c2ccc(Cl)s2)cc(C(C)(C)C)c1O |
| 131 to 132 | COc1cccc2cnc(C)nc12 |
| 100 to 104 | CC(C)(C)[Si](C)(C)OCc1cc(-c2ccc3nc(Cl)cn3c2)cs1 |
| 216 to 217 | O=C1Nc2ccc(F)cc2C(=O)N2CC[C@@H]12 |
| 143 to 144 | C=CCOc1ccc(C(=O)C=Cc2cc(OC)c(C)c(OC)c2)cc1 |
| 158 to 159 | CC1COP(=O)(Cc2ccc(N)cc2)OC1 (stereo not given) |
| 159 | CCOC(=O)Cc1c(C(=O)OCC)cnc2c(NC(=O)c3c(Cl)cccc3Cl)cccc12 |
| 208 to 211 | COc1ccc(CNC(=O)c2cc3c(=O)n(CCC(=O)c4ccccc4)c(=O)n(C)c3s2)cc1 |
| 185 to 188 | CC(C(=O)O)c1ccc2cc(OCC(=O)O)ccc2c1 (stereo not given) |
| 186 to 188 | CCOC(=O)C(C)(C)c1nc2ccc(OCCCN3CCC(OC(c4ccccc4)c4ccccc4)CC3)nn2c1Cl |
| 68 to 70 | C[C@@H](C(N)=O)c1ccc(NS(=O)(=O)Cc2ccccc2)cc1 |
| 90 to 91 | COCc1nnc(-c2ccc3occ(-c4cccc(OC(F)(F)F)c4)c3c2)o1 |
| 114 to 115 | COc1ccc([C@H]2CC[C@H](c3ccc(OC)c(OC)c3)O2)cc1OC (relative stereo) |
| 229 to 230 | Cc1nnc(-c2ccc3occ(-c4ccc(S(=O)(=O)C(C)C)cc4)c3c2)o1 |
| 82 to 84 | COc1ccc2cc([C@H](C)C(=O)NOCC(=O)OC(C)(C)C)ccc2c1 |
| 192 to 195 | O=C(O)/C=C/C(=O)/C=C/c1ccc(C(F)(F)F)cc1 |
| 198 to 199 | CCOc1ccccc1-c1nc2c(OC)cccc2c(=O)[nH]1 |
| 57 to 58.5 | C1=CCC2=C(C1)CCc1ccccc1C2CCN1CCCC1 (stereo not given) |
| 279 to 284 | CC(=NNc1ccc(C2=NNC(=O)CC2C)cc1)c1cc(O)ccc1O (stereo not given) |
| 125 to 127 | CNc1ccsc1C(=O)CS(C)=O (stereo not given) |
| 76 to 77 | COC1(c2cccc(OCc3ccc4ccccc4c3)c2)CCN(CC#N)C1 (stereo not given) |
| 154 to 156 | COc1nc(Br)cnc1NS(=O)(=O)c1ccccc1-c1ccc(CC(C)C)cc1 |
| 190 to 192 | CC(C(N)=O)c1ccc2c(c1)C(=O)Cc1ccccc1S2 (stereo not given) |

| melting point [°C] | SMILES |
| --- | --- |
| 166 | CC(C)(O)c1cnn2c(-c3cccc(-c4ccccc4C#N)c3)cnc2n1 |
| > 250 | CNC1Oc2cc(Cl)cc(-c3ccc(Cl)cc3Cl)c2O1 (stereo not given) |
| 221 to 222 | Cc1ccc(N(C)S(=O)(=O)c2cccs2)c2[nH]c(C(N)=O)cc12 |
| 131 to 132 | CN1Cc2ccccc2C(Oc2ccc(C#N)cc2)C1 (stereo not given) |
| 241 to 242 | Cc1c(-c2ccncc2)[nH]c2c1C(=O)CC(C)(C)C2 |
| 168 to 171 | Cc1cc(-c2n[nH]c(Cc3ccccc3)n2)sc1C(=O)NCc1ccccc1 |
| 119 to 120 | CCOC(=O)c1c(-c2ccccc2)c2cc(Cl)ccc2n1CC#N |
| 114 | COc1cc(N)c(Cl)cc1C(=O)NC1CCN(CCNC(=O)C(CO)c2ccccc2)CC1OC (stereo not given) |
| 154 to 156 | CCOC(=O)C(=CNCc1cnsn1)C(=O)c1cc(F)c(F)c(F)c1F |
| 117 | CCC1CC(=O)N(Cc2ccc(NC(=O)C(C)(C)C)cc2)N=C1c1ccc(OC)c(OC)c1 (stereo not given) |
| 228 to 229 | CCC(=O)Nc1cc(C(C)(C)C)[nH]n1 |
| 160 to 163 | Cc1ncccc1C(N)=O |
| 122 to 126 | CC(CC(=O)O)C(=O)c1ccc(O)cc1 (stereo not given) |
| 245 to 247 | Clc1cc2nc(-c3csc(Cc4c(Cl)cccc4Cl)n3)[nH]c2cc1Cl |
| 212 to 214 | COc1ccc(NC(C)=C2C(=O)OC(=O)C(C(C)=O)=C2O)cc1 |
| 260 | O=P1(O)Oc2c(-c3ccccc3)cc(Cl)cc2-c2ccccc21 |
| 118 to 119 | COc1ccc2[nH]c(C)cc2c1O |
| 225 to 226 | COc1ccc(CNC(=O)Nc2ccc(CN3C(=O)[C@H]4CCC[C@H]4N(C(=O)CCl)c4ccccc43)cc2)cc1 (relative stereo) |
| 131 | O=C(CCCCCN1CCN(c2cccc3c2OCCCO3)CC1)N1Cc2ccccc2C1 |
| 89 to 91 | CC(CS)C(=O)N(CC(=O)O)C1CC1 (stereo not given) |
| 92 to 94 | CC(=O)c1cccc(NC(=O)c2ccc3oc(COCc4ccccc4)cc3c2)c1O |
| 142 to 143 | COC(=O)CC(=O)c1nccn1C |
| 108 to 110 | CN(C(=O)OC(C)(C)C)c1cc(Oc2ccc(OCc3ccccc3)cc2)ccc1[N+](=O)[O-] |

| SMILES | melting point [°C] |
| --- | --- |
| O=C(O)CNC1=Nc2ccc(Cl)cc2C(c2ccccc2)=NC1 | 215 to 220 |
| CCc1cccc(NC(=O)NC2N=C(c3ccccc3F)c3ccccc3N(CC(=O)N3CC4CCC(CC4)C3)C2=O)c1 (racemic) | 185 to 192 |
| C=C(CC)c1cn(-c2c(Cl)cc(C(F)(F)F)cc2Cl)nc1C#N | 104 to 105 |
| O=C1CCOC(N2CCN=C(c3ccccc3Cl)c3cc(Cl)ccc32)=N1 | 124 to 135 |
| O=C(OCC(F)(F)F)c1ncn2c1CN=C(c1ccccc1)c1cc(Br)ccc1-2 | 202 to 204 |
